Structures can show the parent of a compound that is named as a salt.
How the values were obtained:
[1] = system: Ebola virus replication (trVLP); test: microbe, parasite or virus in culture; assay type: cell-based, Ebola Zaire; conditions: for inhibition at 10 µM / IC50: Zaire ebolavirus, HEK-293T; for inhibition at 10 µM: read-out: Inhibition at 10µM (percent inhibition of trVLP replication); for IC50: read-out: IC50 to inhibit Ebola virus (trVLP) replication
[2] = in vitro; conditions: human, Viability at 10µM (MTT viability)
[3] = system: HEK-293T cells; conditions: for Viability at 10µM (MTT viability): human
[4] = system: Leishmania spp.; conditions: cited from earlier work
[5] = system: Ebola virus; conditions: cited from earlier work
[6] = system: Plasmodium; conditions: cited from earlier work
[7] = system: Ebola virus disease; conditions: mouse, in vivo; cited from earlier work

SMILES	inhibition at 10 µM [1]	viability at 10 µM [2]	inhibitory activity in trVLP assay (in words) [1]	also measured
N#C/C=C/c1ccc2ccccc2n1 [2CNQ]	3.07 ± 8.34%	88 ± 3.63%		
O=C(O)/C=C/c1ccc2ccccc2n1 [2COOHQ]	30.6 ± 6.15%	88.5 ± 1.54%	strongly reduced the antiviral inhibition	toxicity / cell viability (in words) [3]: good cell viability
NC/C=C/c1ccc2ccccc2n1 [2NH2Q]	89%	81%	having inhibitory activity	Inhibition at 10µM (percent inhibition of trVLP replication) [1]: 89.74± 6.53%; IC50 [1]: 4.66 µM; Viability at 10µM (MTT viability) [3]: 81.10± 2.09%
OC/C=C/c1ccc2ccccc2n1 [2OHQ]	89%	31%	having inhibitory activity	activity against Leishmania [4]: in vitro and in vivo activities; Inhibition at 10µM (percent inhibition of trVLP replication) [1]: 89.69± 4.09%; Viability at 10µM (MTT viability) [3]: 31.15± 1.27%
CCCc1ccc2ccccc2n1 [2PQSel]	10.8 ± 32.4%	97.6 ± 2.06%		activity against Leishmania [4]: in vitro and in vivo activities; antileishmanial activity [4]: antileishmanial activity
CCCCCc1ccc2ccccc2n1 [2PentQ]				Inhibition at 10µM (percent inhibition of trVLP replication) [1]: -6.39± 9.15%; Viability at 10µM (MTT viability) [3]: 103.48± 0.99%
OCCCCCCCCCCCCCCCCc1ccc2ccccc2n1 [2Q16OH]	-124 ± 30.6%	74 ± 0.75%		
OC(Cc1ccc2ccccc2n1)c1ccccc1 (centres unmarked) [2QPOH]	-114 ± 92.5%	88.3 ± 3.26%		
C(=C\c1ccc2ccccc2n1)/c1ccc2ccccc2n1 [2QQ]	74.3 ± 13.4%	57.31 ± 0.29%	having inhibitory activity	
C#CC(O)CCCCCCCCCCCCC#Cc1ccc2ccccc2n1 (centres unmarked) [2Qi15]	93.3 ± 4.94%	109.5 ± 0.25%	having inhibitory activity	
COc1ccc(/C=C/c2ccc3ccc(C(O)c4cccc(C#N)c4)c(OC)c3n2)cc1OC (centres unmarked) [AS65]	-10.2 ± 65.4%	77.51 ± 0.4%		
CCN(CC)Cc1cc(Nc2ccnc3cc(Cl)ccc23)ccc1O [Amodiaquine, amodiaquine dihydrochloride dihydrate, reference compound]	97.7 ± 10.6%	87.7 ± 1%	significant reductions in luciferase activity	inhibitory effects in pseudo-type entry assay [5]: inhibitory effects; IC50 [1]: 1.45 µM; toxicity / cell viability (in words) [3]: without significant toxicity; antiplasmodial activity [6]: antiplasmodial activity
CCCCCc1ccc2ccccc2n1 [BS460]		107.5 ± 0.59%		Inhibition at 10µM (percent inhibition of trVLP replication) [1]: 4.04± 44.15%; antiplasmodial activity [6]: antiplasmodial activity
CCN(CC)CCCC(C)Nc1ccnc2cc(Cl)ccc12 (centres unmarked) [Chloroquine, Chloroquine diphosphate, reference compound]	92.2 ± 6.23%	106 ± 1.24%	significant reductions in luciferase activity	protection against Ebola virus disease [7]: protective; IC50 [1]: 3.95 µM; antiplasmodial activity [6]: antiplasmodial activity
Cc1ccc2ccc(Br)c(O)c2n1 [DD1]	90.5 ± 8.32%	59.69 ± 0.03%	having inhibitory activity	
Cc1ccc2ccc(C(=O)NCc3ccc(F)cc3)c(O)c2n1 [DD2]	80.8 ± 1.38%	77 ± 4.78%	having inhibitory activity	
COc1cc(Cc2c(C)nc3ccccc3c2C(=O)O)c(Cl)c2c(C)ccnc12 [DD3]	-156 ± 97.3%	105 ± 2.54%		
COc1ccc(Cl)c2c(C)ccnc12 [DD4]	49.7 ± 1.17%	90.1 ± 1.64%		
Cc1ccnc2c(O)ccc(Cl)c12 [DD5]	-66.5 ± 17.8%	51.4 ± 1.31%		

SMILES	inhibition at 10 µM [1]	viability at 10 µM [2]	inhibitory activity in trVLP assay (in words) [1]	also measured
O=C(O)c1ccc2ccc(/C=C/c3cccnc3)nc2c1O [DD6]	-8.49 ± 18.6%	96.7 ± 2.01%		
Cc1ccc2c(C=O)cc(C=O)c(O)c2n1 [DD7]	-31.6 ± 80.9%	90.3 ± 1.64%		
CCn1cc(C(=O)O)c(=O)c2ccc(/C=C/c3ccc(O)c(O)c3)nc21 [DD8]	-74 ± 101%	91.54 ± 0.41%		
CCCCOC(=O)c1ccc2ccc(/C=C/c3cc(OC)c(O)c([N+](=O)[O-])c3)nc2c1O [FS48]	-8.41 ± 60.4%	81.5 ± 0.97%		
CC(=O)Nc1ccc(/C=C/c2ccc3ccc(C(=O)O)c(O)c3n2)cc1 [FZ49]	21.8 ± 28.4%	72.7 ± 1.22%		
O=C(O)c1ccc2ccc(/C=C/c3ccc([N+](=O)[O-])cc3)nc2c1O [FZ142]	63.1 ± 2.64%	102 ± 1.39%		
Oc1cccc2ccc(/C=C/c3ccc4cccc(O)c4n3)nc12 [KHD288]	-8.41 ± 60.4%	62.7 ± 0.72%		
N#Cc1ccc2ccc(/C=C/c3ccc(O)c(O)c3)nc2c1O [KHD291]	-68.1 ± 58.1%	71.17 ± 0.12%		
O=C(c1ccc([N+](=O)[O-])cc1)c1ccc2ccc(/C=C/c3ccc(O)c(O)c3)nc2c1O [MBN87]	-17.9 ± 51.8%	70.5 ± 0.78%		
O=C(c1ccc(F)c(F)c1)c1ccc2ccc(/C=C/c3ccc(O)c(O)c3)nc2c1O [MBN91]	81.8 ± 8.8%	43.5 ± 0.73%	having inhibitory activity	
CCCCCCCCC(=O)c1ccc2ccc(/C=C/c3ccc(O)c(O)c3)nc2c1O [MBN111]	-48.9 ± 87.8%	42.5 ± 4.97%		
Cc1ccc2ccc(C(=O)c3ccc([N+](=O)[O-])cc3)c(O)c2n1 [MBN115]		77.1 ± 0.93%		
O=C(c1ccccn1)c1ccc2ccc(/C=C/c3ccc(O)c(O)c3)nc2c1O [MBN132]	-10.4 ± 57.7%	105 ± 1.39%		
Cc1ccc(C(=O)c2ccc3ccc(/C=C/c4ccc(O)c(O)c4)nc3c2O)cc1[N+](=O)[O-] [MBN140]	-68.1 ± 58.1%	67.6 ± 0.73%		
O=C(NCc1ccc(O)c(O)c1)c1ccc2cccc(C(=O)O)c2n1 [MD20]	-124 ± 93.4%	108.3 ± 0.56%		
O=[N+]([O-])c1cccc(-c2cc(Br)c(O)c3nc(/C=C/c4ccc(O)c(O)c4)ccc23)c1 [MD823]	76.2 ± 3.16%	58.9 ± 1.59%	having inhibitory activity	
COc1ccc(CNC(=O)Nc2ccc3ccc(C(=O)O)c(O)c3n2)cc1 [TOF401]	-44.6 ± 11.9%	106 ± 1.08%		
O=C(CC(=O)c1ccc2ccc(C(=O)O)c(O)c2n1)c1ccccc1 [TOF411]	71.04 ± 0.67%	104.9 ± 0.6%	having inhibitory activity	
C(/C=C/c1ccc2ccccc2n1)=C\c1ccccc1 [XF906]	0.21 ± 20.3%	104 ± 1.65%		
